Legend:
Assay type in all cases: in vivo, mice
IgG1 = experiment: Analysis of IgG1, OVA asthma mouse model; details: blood; FIG. 11, FIG. 14
Procedure: (§1) Meanwhile, immunoglobulin IgG2a is produced by activation of Th1 cells, and the activity of Th1 cells reduces the level of IgG1 which is increased by the activity of Th2 cells. Thus, IgG1 and IgG2a were analyzed.

IgG2a = experiment: Analysis of IgG2a, OVA asthma mouse model; details: FIG. 14
Procedure: as §1

[1] = system: infiltration of immune cells; experiment: Immune cell infiltration, comparison with luteolin in asthma model; details: FIG. 12
Procedure: In order to examine whether the asthma inhibitory effect of the paprika extract of the present invention is attributable to a combination of components or a specific component alone, the following test was carried out. Specifically, the immune cell infiltration of luteolin was examined.

immunoglobulin-E (IgE) = experiment: Measurement of blood immunoglobulin E (IgE) level, OVA asthma mouse model; details: FIG. 13
Procedure: When asthma in mice is induced using OVA, the immunoglobulin-E (IgE) among the blood antibody levels of the mice increases in proportion to the severity of asthma. Based on this principle, the paprika extract obtained according to the method of Example 1 was named “sample SP526”, and the blood immunoglobulin-E (IgE) level of the mice was measured. Also, the level of immunoglobulin-E (IgE) was measured.

## O=c1cc(-c2ccc(O)c(O)c2)oc2cc(O)cc(O)c12 [luteolin]
IgG1
  expression of IgG1: not inhibited
IgG2a
  IgG2a, index of the activation of Th1 cells: produced IgG2a
[1]
  infiltration of immune cells: inhibited the infiltration of immune cells
immunoglobulin-E (IgE)
  effect on blood immunoglobulin-E levels: did not reduce

Reference: patent US10149881B2, “Method for treating inflammatory, allergic or asthma diseases, containing paprika extracts” (priority 2010, dated 2018)
